Drawing on ChEMBL document CHEMBL3400143, “Discovery and hit-to-lead optimization of 2,6-diaminopyrimidine inhibitors of interleukin-1 receptor-associated kinase 4” (Bioorg Med Chem Lett, 2015), this text covers inhibition and IC50 for 22 compounds.

Assay [1] deals with Dual specificity protein kinase CLK4 (Homo sapiens) (UniProt Q9HAZ1). The assay can be described thus: Inhibition of CLK4 (unknown origin).
Assay [2] concerns the target High affinity nerve growth factor receptor (Homo sapiens) (UniProt P04629). As to the kind of experiment: Inhibition of TRKA (unknown origin).
In assay [3] the target is Receptor-type tyrosine-protein kinase FLT3 (Homo sapiens) (UniProt P36888). The assay can be described thus: Inhibition of FLT3 (unknown origin).
Assay [4] has as its target Mitogen-activated protein kinase kinase kinase kinase 4 (Homo sapiens) (UniProt O95819). The assay can be described thus: Inhibition of MAP4K4 (unknown origin).
Assay [5] addresses BDNF/NT-3 growth factors receptor (Homo sapiens) (UniProt Q16620). The assay can be described thus: Inhibition of TRKB (unknown origin).
The target in assay [6] is T1, Interleukin-1 receptor-associated kinase 4 (Homo sapiens, UniProt Q9NWZ3).
T1 sequence (Q9NWZ3 whole entry): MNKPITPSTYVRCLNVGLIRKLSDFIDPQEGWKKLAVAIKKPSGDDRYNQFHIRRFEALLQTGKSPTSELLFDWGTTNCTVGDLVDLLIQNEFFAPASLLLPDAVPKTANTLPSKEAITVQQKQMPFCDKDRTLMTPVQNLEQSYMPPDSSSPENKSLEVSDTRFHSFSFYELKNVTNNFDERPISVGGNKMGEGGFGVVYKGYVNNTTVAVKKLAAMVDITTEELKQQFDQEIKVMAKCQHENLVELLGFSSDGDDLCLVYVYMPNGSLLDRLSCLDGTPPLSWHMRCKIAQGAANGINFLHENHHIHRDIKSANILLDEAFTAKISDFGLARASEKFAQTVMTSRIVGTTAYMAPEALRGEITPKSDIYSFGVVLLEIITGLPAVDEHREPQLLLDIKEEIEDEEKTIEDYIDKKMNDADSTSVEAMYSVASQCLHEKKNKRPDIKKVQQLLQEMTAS
As to the kind of experiment: Inhibition of N-terminal GST tagged human recombinant full-length IRAK4 expressed in Sf9 insect cells assessed as reduction in substrate phosphorylation using RP7030 peptide substrate and ATP incubated for 30 mins fluorescence polarization assay. For orientation: Polarisation of emitted light reports the rotation of a fluorescent probe.

In assay [7] the target is NT-3 growth factor receptor (Homo sapiens) (UniProt Q16288). As to the kind of experiment: Inhibition of TRKC (unknown origin).

Molecules are shown by their SMILES. Calls of active or inactive are those of the source. The rule behind the calls is not given here. Some results are limits rather than exact numbers.

A word on the IC50: it is the concentration that gives 50% inhibition.

Dual specificity protein kinase CLK4 (Homo sapiens), sequence (Q9HAZ1 whole entry, looked up): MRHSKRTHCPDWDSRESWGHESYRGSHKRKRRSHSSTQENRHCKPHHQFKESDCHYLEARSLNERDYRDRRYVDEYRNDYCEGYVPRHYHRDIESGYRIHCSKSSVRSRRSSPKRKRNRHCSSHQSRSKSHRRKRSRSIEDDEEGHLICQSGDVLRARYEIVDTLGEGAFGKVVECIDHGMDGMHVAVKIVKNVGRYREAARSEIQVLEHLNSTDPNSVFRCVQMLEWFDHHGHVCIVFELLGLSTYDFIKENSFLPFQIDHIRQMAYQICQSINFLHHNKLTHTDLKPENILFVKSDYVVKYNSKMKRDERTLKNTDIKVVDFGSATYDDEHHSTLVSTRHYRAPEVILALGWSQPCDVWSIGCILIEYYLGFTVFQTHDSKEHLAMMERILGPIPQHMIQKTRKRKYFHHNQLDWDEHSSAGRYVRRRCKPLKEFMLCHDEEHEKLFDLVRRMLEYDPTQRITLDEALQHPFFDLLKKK
BDNF/NT-3 growth factors receptor (Homo sapiens), sequence (Q16620 32-822 limits assumed): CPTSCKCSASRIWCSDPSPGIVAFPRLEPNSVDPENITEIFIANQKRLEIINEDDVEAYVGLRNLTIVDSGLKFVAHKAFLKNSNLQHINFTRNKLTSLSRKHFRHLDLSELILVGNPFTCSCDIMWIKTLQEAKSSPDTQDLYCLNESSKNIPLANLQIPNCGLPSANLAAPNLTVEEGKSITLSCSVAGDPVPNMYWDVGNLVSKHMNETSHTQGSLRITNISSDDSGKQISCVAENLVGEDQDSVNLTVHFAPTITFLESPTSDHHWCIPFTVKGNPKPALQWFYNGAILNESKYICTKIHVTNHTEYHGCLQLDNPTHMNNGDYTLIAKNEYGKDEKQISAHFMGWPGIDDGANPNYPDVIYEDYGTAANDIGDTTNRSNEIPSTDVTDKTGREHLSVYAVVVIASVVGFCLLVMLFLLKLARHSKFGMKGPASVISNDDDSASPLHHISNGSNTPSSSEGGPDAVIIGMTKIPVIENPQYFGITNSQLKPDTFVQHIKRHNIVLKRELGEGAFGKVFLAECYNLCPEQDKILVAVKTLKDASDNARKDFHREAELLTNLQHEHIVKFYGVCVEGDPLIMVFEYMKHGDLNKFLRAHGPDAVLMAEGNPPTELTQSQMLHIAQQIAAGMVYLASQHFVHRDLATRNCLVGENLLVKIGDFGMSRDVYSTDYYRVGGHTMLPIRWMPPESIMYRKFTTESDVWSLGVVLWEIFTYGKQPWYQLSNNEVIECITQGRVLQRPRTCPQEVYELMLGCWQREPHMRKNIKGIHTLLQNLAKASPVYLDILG
High affinity nerve growth factor receptor (Homo sapiens), sequence (P04629 33-796 limits assumed): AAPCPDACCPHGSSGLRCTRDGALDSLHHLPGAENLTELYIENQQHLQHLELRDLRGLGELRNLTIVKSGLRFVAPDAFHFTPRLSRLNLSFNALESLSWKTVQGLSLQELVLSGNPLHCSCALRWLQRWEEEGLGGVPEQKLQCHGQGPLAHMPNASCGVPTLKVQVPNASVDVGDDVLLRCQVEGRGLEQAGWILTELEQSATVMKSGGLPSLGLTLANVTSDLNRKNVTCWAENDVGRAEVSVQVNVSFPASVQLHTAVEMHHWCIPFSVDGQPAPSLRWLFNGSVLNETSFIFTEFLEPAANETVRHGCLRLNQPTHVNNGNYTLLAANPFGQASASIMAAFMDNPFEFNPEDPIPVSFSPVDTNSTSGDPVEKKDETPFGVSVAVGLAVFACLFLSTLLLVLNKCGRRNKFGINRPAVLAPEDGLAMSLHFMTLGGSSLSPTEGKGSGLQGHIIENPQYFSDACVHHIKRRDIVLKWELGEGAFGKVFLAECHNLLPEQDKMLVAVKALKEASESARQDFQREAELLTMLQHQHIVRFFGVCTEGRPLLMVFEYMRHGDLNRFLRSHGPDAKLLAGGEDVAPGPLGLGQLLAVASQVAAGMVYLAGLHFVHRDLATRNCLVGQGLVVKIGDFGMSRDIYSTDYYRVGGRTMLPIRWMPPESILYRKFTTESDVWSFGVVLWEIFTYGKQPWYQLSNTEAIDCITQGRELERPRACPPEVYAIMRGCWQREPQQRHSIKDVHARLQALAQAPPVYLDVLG
Receptor-type tyrosine-protein kinase FLT3 (Homo sapiens), sequence (P36888 whole entry): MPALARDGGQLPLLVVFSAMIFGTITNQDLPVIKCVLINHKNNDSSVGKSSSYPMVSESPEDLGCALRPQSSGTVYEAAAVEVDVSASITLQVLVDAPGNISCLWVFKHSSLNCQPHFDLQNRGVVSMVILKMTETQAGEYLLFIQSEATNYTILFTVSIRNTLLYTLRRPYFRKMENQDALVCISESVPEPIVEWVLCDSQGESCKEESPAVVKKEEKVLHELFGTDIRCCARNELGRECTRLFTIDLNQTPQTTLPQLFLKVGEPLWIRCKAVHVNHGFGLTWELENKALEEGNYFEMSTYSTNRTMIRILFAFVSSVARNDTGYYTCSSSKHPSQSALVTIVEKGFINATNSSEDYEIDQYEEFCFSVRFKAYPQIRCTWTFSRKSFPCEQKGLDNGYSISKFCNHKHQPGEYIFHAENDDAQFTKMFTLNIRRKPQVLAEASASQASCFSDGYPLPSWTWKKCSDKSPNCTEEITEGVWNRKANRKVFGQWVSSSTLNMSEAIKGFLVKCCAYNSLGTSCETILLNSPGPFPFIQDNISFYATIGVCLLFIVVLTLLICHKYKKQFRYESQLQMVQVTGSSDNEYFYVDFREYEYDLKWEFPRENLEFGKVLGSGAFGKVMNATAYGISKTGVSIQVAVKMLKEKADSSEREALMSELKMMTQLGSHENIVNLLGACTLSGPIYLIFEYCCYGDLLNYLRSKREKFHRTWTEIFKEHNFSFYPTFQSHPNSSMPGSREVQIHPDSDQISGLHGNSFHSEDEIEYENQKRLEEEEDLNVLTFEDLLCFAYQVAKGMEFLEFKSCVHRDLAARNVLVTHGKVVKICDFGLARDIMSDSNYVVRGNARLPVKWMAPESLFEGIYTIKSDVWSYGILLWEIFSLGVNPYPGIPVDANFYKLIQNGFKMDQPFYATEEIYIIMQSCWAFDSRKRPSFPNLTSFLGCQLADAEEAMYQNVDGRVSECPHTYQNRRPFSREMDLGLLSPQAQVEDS
Mitogen-activated protein kinase kinase kinase kinase 4 (Homo sapiens), sequence (O95819 2-1239 limits assumed): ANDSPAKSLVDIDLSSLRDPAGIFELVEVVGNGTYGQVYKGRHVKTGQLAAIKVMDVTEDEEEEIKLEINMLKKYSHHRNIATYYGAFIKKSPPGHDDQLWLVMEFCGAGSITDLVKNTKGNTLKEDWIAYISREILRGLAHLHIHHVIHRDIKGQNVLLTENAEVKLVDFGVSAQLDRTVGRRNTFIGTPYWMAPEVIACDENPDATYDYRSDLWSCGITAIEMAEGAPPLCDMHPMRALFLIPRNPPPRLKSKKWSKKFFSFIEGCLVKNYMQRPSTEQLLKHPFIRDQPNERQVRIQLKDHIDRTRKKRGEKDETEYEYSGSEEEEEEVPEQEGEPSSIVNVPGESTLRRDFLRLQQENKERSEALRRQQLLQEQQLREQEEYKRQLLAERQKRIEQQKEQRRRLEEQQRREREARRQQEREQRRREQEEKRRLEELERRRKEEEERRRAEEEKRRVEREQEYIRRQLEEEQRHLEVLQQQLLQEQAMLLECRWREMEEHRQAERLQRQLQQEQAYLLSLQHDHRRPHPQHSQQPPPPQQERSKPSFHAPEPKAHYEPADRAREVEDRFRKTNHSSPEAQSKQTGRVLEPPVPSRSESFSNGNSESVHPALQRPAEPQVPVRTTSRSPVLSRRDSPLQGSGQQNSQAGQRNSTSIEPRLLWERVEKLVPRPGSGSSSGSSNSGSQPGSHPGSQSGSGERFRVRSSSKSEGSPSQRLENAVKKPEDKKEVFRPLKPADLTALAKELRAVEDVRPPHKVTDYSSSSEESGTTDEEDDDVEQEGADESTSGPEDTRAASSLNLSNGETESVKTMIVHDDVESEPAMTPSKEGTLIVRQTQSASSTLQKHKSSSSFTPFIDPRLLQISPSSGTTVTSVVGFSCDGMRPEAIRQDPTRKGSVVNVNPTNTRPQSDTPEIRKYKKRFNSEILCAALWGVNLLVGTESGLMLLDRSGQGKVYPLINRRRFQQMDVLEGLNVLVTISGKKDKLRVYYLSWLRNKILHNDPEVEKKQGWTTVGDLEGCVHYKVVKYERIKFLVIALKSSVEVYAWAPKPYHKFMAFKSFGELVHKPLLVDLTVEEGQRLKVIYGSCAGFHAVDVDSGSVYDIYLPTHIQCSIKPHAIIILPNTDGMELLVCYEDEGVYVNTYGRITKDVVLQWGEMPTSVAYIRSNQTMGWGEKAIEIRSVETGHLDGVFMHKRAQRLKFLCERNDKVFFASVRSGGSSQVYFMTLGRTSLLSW
NT-3 growth factor receptor (Homo sapiens), sequence (Q16288 32-839 limits assumed): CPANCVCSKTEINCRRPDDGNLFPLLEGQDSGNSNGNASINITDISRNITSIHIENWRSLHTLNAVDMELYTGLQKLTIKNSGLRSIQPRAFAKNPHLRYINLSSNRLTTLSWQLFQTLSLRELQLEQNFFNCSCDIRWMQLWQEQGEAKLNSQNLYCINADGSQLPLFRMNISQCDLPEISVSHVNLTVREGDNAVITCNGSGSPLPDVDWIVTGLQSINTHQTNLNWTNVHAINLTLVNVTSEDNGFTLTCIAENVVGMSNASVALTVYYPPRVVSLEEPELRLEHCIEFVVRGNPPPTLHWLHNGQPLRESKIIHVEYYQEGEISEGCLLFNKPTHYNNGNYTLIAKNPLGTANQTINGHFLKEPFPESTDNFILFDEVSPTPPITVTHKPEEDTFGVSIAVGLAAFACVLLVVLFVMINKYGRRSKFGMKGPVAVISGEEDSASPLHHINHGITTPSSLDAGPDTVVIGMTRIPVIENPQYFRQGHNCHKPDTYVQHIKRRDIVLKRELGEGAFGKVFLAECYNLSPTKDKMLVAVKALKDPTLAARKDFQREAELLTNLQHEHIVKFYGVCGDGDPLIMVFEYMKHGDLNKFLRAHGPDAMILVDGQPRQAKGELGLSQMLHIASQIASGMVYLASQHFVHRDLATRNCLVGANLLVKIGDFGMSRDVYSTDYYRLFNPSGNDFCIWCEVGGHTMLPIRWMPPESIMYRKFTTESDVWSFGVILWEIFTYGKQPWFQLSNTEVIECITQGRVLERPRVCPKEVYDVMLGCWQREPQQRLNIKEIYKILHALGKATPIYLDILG

Take `Cc1cc(Nc2ncc(-c3nc4ccccc4s3)c(N[C@@H]3C[C@H](CO)[C@@H](O)[C@H]3O)n2)ccn1`: the inhibition entry in assay [1], in assay [2], in assay [3], in assay [4], in assay [5] and in assay [7] was “Active” each time. Besides, in assay [6], the half-maximal inhibitory concentration (IC50) came out at 1 µM.

Consider `Nc1ncc(-c2nc3ccncc3s2)c(N[C@@H]2C[C@H](CO)[C@@H](O)[C@H]2O)n1`, for which the inhibition entry in assay [1], in assay [2], in assay [3], in assay [4], in assay [5] and in assay [7] was “Active” in each case.

For `CCCNc1nc(C)c(-c2nc3ccccc3s2)c(N2CCOCC2)n1`, the inhibition result in assay [1], in assay [2], in assay [3], in assay [4], in assay [5] and in assay [7] was “Active” throughout. Further, the IC50 in assay [6] was greater than 20 µM.

In the case of `CCCNc1nc(C)c(-c2nc3ccccc3s2)c(N[C@@H]2CC[C@@H](O)[C@H]2O)n1` (racemic), the inhibition entry in assay [1], in assay [2], in assay [3], in assay [4], in assay [5] and in assay [7] was “Active” each time. Moreover, the IC50 in assay [6] was greater than 20 µM.

As to `CCCNc1ncc(-c2nc3ccccc3s2)c(N[C@@H]2C[C@H](CO)[C@@H](O)[C@H]2O)n1`, the inhibition entry in assay [1], in assay [2], in assay [3], in assay [4], in assay [5] and in assay [7] was “Active” in each case. Also, the IC50 in assay [6] was found to be 1.19 µM.

Take `Nc1nc(N)c(-c2nc3ccccc3s2)c(N[C@@H]2C[C@H](CO)[C@@H](O)[C@H]2O)n1`: the inhibition entry in assay [1], in assay [2], in assay [3], in assay [4], in assay [5] and in assay [7] was “Active” throughout. Also, the IC50 in assay [6] is 5.19 µM.

On to `OC[C@H]1C[C@@H](Nc2nc(NC3CCCCC3)ncc2-c2nc3ccccc3s2)[C@H](O)[C@@H]1O`, for which the inhibition entry in assay [1], in assay [2], in assay [3], in assay [4], in assay [5] and in assay [7] was “Active” in each case. Besides, in assay [6], the 50% inhibitory concentration (IC50) came out at 3.01 µM.

Regarding `Cn1c(-c2cnc(N)nc2N[C@@H]2C[C@H](CO)[C@@H](O)[C@H]2O)nc2ccccc21`, the inhibition result in assay [1], in assay [2], in assay [3], in assay [4], in assay [5] and in assay [7] was “Active” throughout. In addition, the IC50 in assay [6] was greater than 20 µM.

Regarding `Nc1ncc(-c2nc3cnccc3s2)c(N[C@@H]2C[C@H](CO)[C@@H](O)[C@H]2O)n1`, the inhibition entry in assay [1], in assay [2], in assay [3], in assay [4], in assay [5] and in assay [7] was “Active” in each case.

`OC[C@H]1C[C@@H](Nc2nc(NC3CCOCC3)ncc2-c2nc3ccccc3s2)[C@H](O)[C@@H]1O`: the inhibition entry in assay [1], in assay [2], in assay [3], in assay [4], in assay [5] and in assay [7] was “Active” each time. Besides, the 50% inhibitory concentration (IC50) in assay [6] turned out to be 1.08 µM.

As to `Nc1ncc(-c2cnc3ccccn23)c(N[C@@H]2C[C@H](CO)[C@@H](O)[C@H]2O)n1`, the inhibition result in assay [1], in assay [2], in assay [3], in assay [4], in assay [5] and in assay [7] was “Active” throughout. The IC50 in assay [6] amounted to 1.14 µM.

Regarding `CCc1nc(N)nc(N[C@@H]2C[C@H](CO)[C@@H](O)[C@H]2O)c1-c1nc2ccccc2s1`, the inhibition result in assay [1], in assay [2], in assay [3], in assay [4], in assay [5] and in assay [7] was “Active” throughout. Moreover, the half-maximal inhibitory concentration (IC50) in assay [6] is 6.85 µM.

With `Nc1ncc(-c2nc3cccnc3s2)c(N[C@@H]2C[C@H](CO)[C@@H](O)[C@H]2O)n1`, the inhibition result in assay [1], in assay [2], in assay [3], in assay [4], in assay [5] and in assay [7] was “Active” in each case. In addition, the IC50 in assay [6] came out at 0.53 µM.

With `Nc1ncc(-c2nccs2)c(N[C@@H]2C[C@H](CO)[C@@H](O)[C@H]2O)n1`, the inhibition entry in assay [1], in assay [2], in assay [3], in assay [4], in assay [5] and in assay [7] was “Active” throughout. For the same compound, the IC50 in assay [6] is 4.7 µM.

As to `OC[C@H]1C[C@@H](Nc2nc(NC3CCC3)ncc2-c2nc3ccccc3s2)[C@H](O)[C@@H]1O`, the inhibition entry in assay [1], in assay [2], in assay [3], in assay [4], in assay [5] and in assay [7] was “Active” in each case. The IC50 in assay [6] is 0.403 µM.

As for `OC[C@H]1C[C@@H](Nc2nc(Nc3ccccc3)ncc2-c2nc3ccccc3s2)[C@H](O)[C@@H]1O`, the inhibition entry in assay [1], in assay [2], in assay [3], in assay [4], in assay [5] and in assay [7] was “Active” each time. Moreover, the IC50 in assay [6] came to 42 µM.

Consider `Nc1nc(N[C@@H]2C[C@H](CO)[C@@H](O)[C@H]2O)c(-c2nc3ccccc3s2)c(C(F)(F)F)n1`, for which the inhibition result in assay [1], in assay [2], in assay [3], in assay [4], in assay [5] and in assay [7] was “Active” each time. In assay [6], the half-inhibitory concentration (IC50) was greater than 20 µM.

In the case of `CCCNc1nc(C)c(-c2nc3ccccc3s2)c(N[C@@H]2C[C@H](CO)[C@@H](O)[C@H]2O)n1`, the inhibition entry in assay [1], in assay [2], in assay [3], in assay [4], in assay [5] and in assay [7] was “Active” each time. Besides, the IC50 in assay [6] was 0.24 µM.

Take `OC[C@H]1C[C@@H](Nc2nc(Nc3cncnc3)ncc2-c2nc3ccccc3s2)[C@H](O)[C@@H]1O`: the inhibition entry in assay [1], in assay [2], in assay [3], in assay [4], in assay [5] and in assay [7] was “Active” throughout. Moreover, the IC50 in assay [6] amounted to 6 µM.

On to `Nc1ncc(-c2nc(-c3ccccc3)cs2)c(N[C@@H]2C[C@H](CO)[C@@H](O)[C@H]2O)n1`, for which the inhibition result in assay [1], in assay [2], in assay [3], in assay [4], in assay [5] and in assay [7] was “Active” throughout.

For the compound `Nc1ncc(-c2nc3ccccc3o2)c(N[C@@H]2C[C@H](CO)[C@@H](O)[C@H]2O)n1`, the inhibition result in assay [1], in assay [2], in assay [3], in assay [4], in assay [5] and in assay [7] was “Active” throughout.

For the compound `Nc1ncc(-c2ccc3ccccc3n2)c(N[C@@H]2C[C@H](CO)[C@@H](O)[C@H]2O)n1`, the inhibition result in assay [1], in assay [2], in assay [3], in assay [4], in assay [5] and in assay [7] was “Active” each time.
